# Experimental data taken from patent publication US20090149472A1, “SALTS OF SUBSTITUTTED PYRAZOLINE COMPOUNDS, THEIR PREPARATION AND USE AND MEDICAMENTS” (Laboratorios Del Dr. Esteve, S.A., priority 2005, published 2009).
# Where two headings read alike, the source gives them in different places.
# Experiments:
# CB1-Receptor = CB1-Receptor (Homo sapiens, UniProt P21554); experiment: CB1 receptor binding, radioligand [3H]-SR141716A (Table Ia)
# [1] = In-vivo antidepressant activity, water despair test
# Procedure: The in-vivo testing for antidepressant activity of the inventive pyrazoline compounds in the water despair test is carried out as described in the publication of E. T. Tzavara et al., “The CB1 receptor antagonist SR141716A selectively increases monoaminergic neurotransmission in the medial prefrontal cortex: implications for therapeutic actons”; Br. J. Pharmacol. 2003, 138(4):544:53. The respective part of the description is hereby incorporated by reference and forms part of the present disclosure.
# The in-vivo testing for antidepressant activity of the inventive pyrazoline compounds in the water despair test was carried out as described above.
# male NMRI mice [2] = experiment: Mouse tetrad model, agonistic effect; assay type: in vivo; design: key to Agonistic effect D: Sedation: % of sedation = mean score (0–3 scale) / 3 × 100; Agonistic effect A: Hot-Plate test / Agonistic effect B: Hypothermia / Agonistic effect C: Catalepsy: unit not given here; settings: 5 mg/kg i.v.
# From the text: (§1) Substances with affinity for cannabinoid receptors are known to produce a wide range of pharmacological effects. It is also known that intravenous administration of a substance with affinity for cannabinoid receptors in mice produces analgesia, hypothermia, sedation and catalepsy. Individually, none of these effects can be considered as proof that a tested substance has affinity for cannabinoid-receptors, since all of these effects are common for various classes of centrally active agents. However, substances, which show all of these effects, i.e. substances that are active in this so-called tetrad model are considered to have affinity for the cannabinoid receptors.
# (§2) The tetrad model is described, for example, in the publication of A. C. Howlett et al, International Union of Pharmacology XXVII. Classification of Cannabinoid Receptors, Pharmacol Rev 54, 161-202, 2002 and David R. Compton et al., “In-vivo Characterization of a Specific Cannabinoid Receptor Antagonist (SR141716A):Inhibition of Tetrahydrocannbinol-induced Responses and Apparent Agonist Activity”, J. Pharmacol. Exp. Ther. 277, 2, 586-594, 1996. The corresponding parts of the description are hereby incorporated by reference.
# (§3) Male NMRI mice with a weight of 20-30 g (Harlan, Barcelona, Spain) are used in all of the following experiments.
# (§4) Before testing in the behavioral procedures given below, mice are acclimatized to the experimental setting. Pre-Treatment control values are determined for analgesia hot plate latency (in seconds), rectal temperature, sedation and catalepsy.
# In order to determine the agonistic activity of the substance to be tested, the mice are injected intravenously with the substance to be tested or the vehicle alone. 15 minutes after injection, latency in hot plate analgesia is measured. Rectal temperature, sedation and catalepsy are measured 20 minutes after injection.
# (§5) The hot plate analgesia is determined according to the method described in Woolfe D. et al. “The evaluation of analgesic action of pethidine hydrochloride (Demerol)”, J. Pharmacol. Exp. Ther. 80, 300-307, 1944. The respective description is hereby incorporated by reference and forms part of the present disclosure.
# (§6) The mice are placed on a hot plate (Harvard Analgesimeter) at 55±0.5° C. until they show a painful sensation by licking their paws or jumping and the time for these sensations to occur is recorded. This reading is considered the basal value (B). The maximum time limit the mice are allowed to remain on the hot plate in absence of any painful response is 40 seconds in order to prevent skin damage. This period is called the cut-off time (PC).
# (§7) Fifteen minutes after the administration of the substance to be tested, the mice are again placed on the hot plate and the afore described procedure is repeated. This period is called the post-treatment reading (PT).
# (§8) The degree of analgesia is calculated from the formula:
# (§9) % MPE of Analgesia=(PT−B)/(PC−B)×100
# (§10) Sedation and ataxia is determined according to the method described in Desmet L. K. C. et al. “Anticonvulsive properties of Cinarizine and Flunarizine in Rats and Mice”, Arzneim.-Forsch. (Frug Res) 25, 9, 1975. The respective description is hereby incorporated by reference and forms part of the present disclosure.
# (§11) The chosen scoring system is
# (§12) 0: no ataxia; 1: doubtful; 2: obvious calmness and quiet; 3 pronounced ataxia; prior to as well as after treatment.
# (§13) The percentage of sedation is determined according to the formula:
# (§14) % of sedation=arithmetic mean/3×100
# (§15) Hypothermia is determined according to the method described in David R. Compton et al. “In-vivo Characterization of a Specific Cannabinoid Receptor Antagonist (SR141716A) Inhibition of Tetrahydrocannbinol-induced Responses and Apparent Agonist Activity”, J. Pharmacol Exp Ther. 277, 2, 586-594, 1996. The respective description is hereby incorporated by reference and forms part of the present disclosure. […]
# [3] = target: T1, transfected human CB2 receptor (Homo sapiens, UniProt P34972); experiment: In-vitro affinity to CB2 receptor, radioligand [3H]-CP55940; assay type: binding
# T1 construct: purchased Receptor Biology, Inc
# Procedure: (§16) The in-vitro determination of the affinity of the inventive substituted pyrazoline compounds to CB1/CB2-Rezeptors is carried out as described in the publication of Ruth A. Ross, Heather C. Brockie et al., “Agonist-inverse agonist characterization at CB1 and CB2 cannabinoid receptors of L-759633, L759656 and AM630”, British Journal of Pharmacology, 126, 665-672, (1999), whereby the transfected human CB1 and CB2 receptors of Receptor Biology, Inc. are used. The radioligand used for both receptors is [^3H]-CP55940. The respective parts of the description is hereby incorporated by reference and forms part of the present disclosure.
# (§17) The affinity of the inventive substituted pyrazoline compounds to CB1/CB2 receptors was determined as described above.
# rats = experiment: In-vivo testing for antiobesic activity; design: species or system rat
# Procedure: The in-vivo testing for antiobesic activity of the inventive pyrazoline compounds is carried out as described in the publication of G. Colombo et al., “Appetite Suppression and Weight Loss after the Cannabinoid Antagonist SR 141716”; Life Sciences, 63 (8), 113-117, (1998). The respective part of the description is hereby incorporated by reference and forms part of the present disclosure.
# The in-vivo testing for antiobesic activity was carried out as described above, whereby four different groups of 10 rats each were treated as follows:
# The second group of rats was treated with the inventive compound N-piperidinyl-5-(4-chlorophenyl)-1-(2,4-dichlorophenyl)-4,5-dihydropyrazole-3-carboxamide according to Example 1. Said compound was administered intraperitoneally to the rats over a period of 14 days in a daily dosis of (10 mg/kg body weight).
# male NMRI mice [4] = experiment: Mouse tetrad model, antagonistic effect against Win 55212-2; assay type: in vivo; design: unit not given here; settings: 5 mg/kg i.v. prior to Win 55212-2 1.25 mg/kg i.v.
# From the text: as §1, §2, §3, §4
# In order to determine the antagonistic activity the identical procedure is used as for the determination of the agonistic effects, but with the difference that the substance to be evaluated for its antagonistic activity is injected 5 minutes before the intravenous injection of 1.25 mg/kg Win-55,212 a known cannabinoid-receptor agonist.
# as §5, §6, §7, §8, §9, §10, §11, §12, §13, §14, §15
# [5] = target: T2, transfected human CB1 receptor (Homo sapiens, UniProt P21554); experiment: In-vitro affinity to CB1 receptor, radioligand [3H]-CP55940; assay type: binding
# T2 construct: purchased Receptor Biology, Inc
# Procedure: as §16, §17
# [6] = read-out: CB1-Receptor Radioligand: [3H]-SR141716A % Inhibition 10^-7 M
# Sequence of CB1-Receptor (P21554 whole entry): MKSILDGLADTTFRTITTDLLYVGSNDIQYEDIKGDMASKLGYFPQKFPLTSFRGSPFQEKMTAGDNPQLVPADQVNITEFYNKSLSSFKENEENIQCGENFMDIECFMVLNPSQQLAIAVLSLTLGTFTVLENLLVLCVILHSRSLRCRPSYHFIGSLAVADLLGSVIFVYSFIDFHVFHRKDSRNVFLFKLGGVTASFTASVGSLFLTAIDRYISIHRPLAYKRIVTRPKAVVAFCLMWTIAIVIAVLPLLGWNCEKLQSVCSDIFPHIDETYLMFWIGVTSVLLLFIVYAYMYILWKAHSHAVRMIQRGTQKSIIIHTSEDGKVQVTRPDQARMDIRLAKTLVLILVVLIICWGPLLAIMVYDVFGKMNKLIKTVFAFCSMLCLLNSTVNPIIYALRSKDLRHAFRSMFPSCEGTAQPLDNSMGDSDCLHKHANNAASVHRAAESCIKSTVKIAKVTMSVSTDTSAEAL
# T1 sequence (P34972 whole entry): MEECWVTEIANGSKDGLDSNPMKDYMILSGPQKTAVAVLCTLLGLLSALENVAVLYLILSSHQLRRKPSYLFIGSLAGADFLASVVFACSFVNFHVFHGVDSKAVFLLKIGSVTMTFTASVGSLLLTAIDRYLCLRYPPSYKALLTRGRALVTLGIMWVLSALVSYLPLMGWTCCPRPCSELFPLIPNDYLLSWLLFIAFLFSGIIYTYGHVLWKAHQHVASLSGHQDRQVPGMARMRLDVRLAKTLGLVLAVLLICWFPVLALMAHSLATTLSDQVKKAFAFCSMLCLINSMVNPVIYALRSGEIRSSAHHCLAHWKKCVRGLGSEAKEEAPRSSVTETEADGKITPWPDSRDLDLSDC
# T2 sequence (P21554 whole entry): as the sequence (P21554 whole entry) above
structure (smiles),measurement,setting,value
O=C(Nn1cnnc1)C1=NN(c2ccc(Cl)cc2Cl)C(c2ccc(Cl)cc2)C1 (stereo not drawn),melting point,,134 to 138 °C
CN1CCN(NC(=O)C2=NN(c3ccc(Cl)cc3Cl)C(c3ccc(Cl)cc3)C2)CC1.Cl (stereo not drawn),melting point,,150 to 155 °C
O=C(NN1CCCCC1)C1=NC(c2ccc(Cl)cc2Cl)[C@@H](c2ccc(Cl)cc2)C1 (stereo partly drawn),inhibition at 0.1 µM,"CB1-Receptor; 10^-7 M, [3H]-SR141716A, read-out: CB1-Receptor Radioligand: [3H]-SR141716A % Inhibition 10^-7 M",82.7%
O=C(NN1CCCCC1)C1=NN(c2ccc(Cl)cc2Cl)C(c2ccc(Cl)cc2)C1.O=[N+]([O-])O (stereo not drawn),CB1-Receptor Radioligand: [3H]-SR141716A % Inhibition 10^-7 M,"CB1-Receptor; 10^-7 M, [3H]-SR141716A",83.6%
O=C(NN1CCCCC1)C1=NN(c2ccc(Cl)cc2Cl)[C@@H](c2ccc(Cl)cc2)C1,inhibition at 0.1 µM,CB1-Receptor; [6],83.3%
"O=C(NN1CCCCC1)C1=NN(c2ccc(Cl)cc2Cl)C(c2ccc(Cl)cc2)C1 (stereo not drawn) [Example 1, N-piperidinyl-5-(4-chlorophenyl)-1-(2,4-dichlorophenyl)-4,5-dihydro-1H-pyrazole-3-carboxamide]",immobility time and struggling time,[1],positive effects
same,Agonistic effect A: Hot-Plate test,male NMRI mice [2],0
same,Agonistic effect B: Hypothermia,male NMRI mice [2],0
same,Agonistic effect C: Catalepsy,male NMRI mice [2],0
same,Agonistic effect D: Sedation,male NMRI mice [2],0
same,Ki,[3],> 1000 nM
same,body weight,rats; 10 mg/kg daily intraperitoneally over 14 days (FIG. 1),lowered
same,food intake,rats; 10 mg/kg daily intraperitoneally over 14 days (FIG. 2),reduction
same,body weight effect after the treatment is ended,rats; after end of 14 days of 10 mg/kg daily i.p. (FIG. 1),also observed after the treatment is ended
same,Antagonistic Effect A: Hot-Plate test,male NMRI mice [4],74
same,Antagonistic Effect B: Hypothermia,male NMRI mice [4],100
same,Antagonistic Effect C: Catalepsy,male NMRI mice [4],100
same,Antagonistic Effect D: Sedation,male NMRI mice [4],100
same,Ki,[5],< 25 nM
"O=C(C1=NN(c2ccc(Cl)cc2Cl)C(c2ccc(Cl)cc2)C1)N1CCCCC1 (stereo not drawn) [Example 5, [5-(4-Chloro-phenyl)-1-(2,4-dichloro-phenyl)-4,5-dihydro-1H-pyrazol-3-yl]-piperidin-1-yl-methanone]",Agonistic effect A: Hot-Plate test,male NMRI mice [2],0
same,Agonistic effect B: Hypothermia,male NMRI mice [2],50
same,Agonistic effect C: Catalepsy,male NMRI mice [2],0
same,Agonistic effect D: Sedation,male NMRI mice [2],0
same,Antagonistic Effect A: Hot-Plate test,male NMRI mice [4],50
same,Antagonistic Effect B: Hypothermia,male NMRI mice [4],40
same,Antagonistic Effect C: Catalepsy,male NMRI mice [4],20
same,Antagonistic Effect D: Sedation,male NMRI mice [4],20
same,melting point,,105 to 110 °C
O=C(NN1CCCCC1)C1=NN(c2ccc(Cl)cc2Cl)C(c2ccc(Cl)cc2)C1 (stereo not drawn) [drawing 82],inhibition at 0.1 µM,"CB1-Receptor; read-out: CB1-Receptor Radioligand: [3H]-SR141716A % Inhibition 10^-7 M, 10^-7 M, [3H]-SR141716A",82.6%
O=C(NN1CCCCC1)C1=NN(c2ccc(Cl)cc2Cl)C(c2ccc(Cl)cc2)C1 (stereo not drawn) [drawing 84],inhibition at 0.1 µM,CB1-Receptor; [6],99.7%
